Read-outs that look alike come from different tables or passages of the source.
Tests used:
[1] = molecular target: hemagglutinin (BHA), fusion peptide exposure (Influenza A virus (A/X-31(H3N2)), UniProt P03438); type: biochemical, C22 / X31 influenza virus (H3N2)
low pH BHA = assay: SPA POST control (nonspecific quenching); design: species or system C22 / X31 influenza virus (H3N2)
Experimental: The compounds being screened by SPA are present during scintillation counting. Some of the chemicals, particularly those that are highly colored, quench the detection of radioactivity. A control ("POST") distinguishes whether apparent inhibition arises from inhibition of the conformational change or from nonspecific effects. The test compound is added to a sample of BHA that had previously been acidified and reneutralized. The mixture is then precipitated as usual. Since the BHA treated in this manner is known to be in the low pH conformation, a reduction in measurable cpm compared to controls with ligand omitted proves the compound interferes with the detection system.
^3 H-Leu BHA was diluted to 10,000 cpm (counts per minute) per 200 μl in MSSH buffer (10 mM HEPES, 10 mM MES, 10 mM succinate, 0.10 M NaCl, pH 7.0) containing 0.1% NP40. Protein was incubated with the specified concentration of trial compound for 25 minutes at RT. The same volume of solvent used to dissolve the compound was added to control samples and the final concentration of DMSO in all solutions was 0.67% v/v. A predetermined amount of 1N HAc was added to bring the reactions to the appropriate pH (usually pH 5.0). Following a 5 minute (unless specified otherwise) incubation at RT, reactions were reneutralized with 1N NaOH. For POST controls, compounds were added to the appropriate concentration after reneutralization. 200 μL aliquots of the protein solution were added to scintillation vials containing 100 μl protein A-SPA beads (Amersham), 5% fetal bovine serum (FBS), and antibody. Vials were incubated overnight at RT with constant shaking. Each reaction used 10 μl of fusion peptide antiserum diluted 1:10 with 50% glycerol. Cpm were detected in a Beckman LS3801 scintillation counter without addition of liquid scintillant.
Apparent inhibition due to nonspecific effects was quantitated from the POST controls with the equation:
observed cpm=true cpm*quench factor

[2] = tested on: hemagglutinin-mediated hemolysis of human red blood cells; assay: Hemolysis (HEM) assay; type: cell-based, C22 influenza virus; human red blood cells
hemoglobin = assay: Hb control (quenching of OD570 of hemoglobin); design: species or system human
C22 virus in MDCK2 cells [3] = tested on: C22 virus in MDCK2 cells
in vitro = conditions: dog, mdck
Experimental: The ELISA-based assay described below (EIA antiviral assay) was used to measure antiviral activity. Cell viability was measured in parallel to distinguish inhibition of viral replication from toxicity.
Infections of MDCK2 cells with virus, compounds, and DMSO were set up identically as for the EIA assay. Following the 15 hour incubation, test compounds were washed away with PBS. 50 μl of MDCK2 growth media and 25 μl 2 mg/ml 3-(4,5-dimethylthiazol-2-yl)-2,5-diphenyl tetrazolium bromide (Sigma) in PBS were added to each well. Plates were returned to 37° C., 5% CO2 for 4 hrs. Crystals were broken up by vigorous mixing following addition of 80 μl isopropanol/0.04 N HCl. After incubation for 30 mins at RT, OD570 was read on an ELISA reader. % Inhibition is the % reduction of OD570 in the wells infected with compound compared to otherwise identical samples with compound omitted.

C22 virus in MDCK2 cells [4] = assay: microbe, parasite or virus in culture; conditions: unidentified influenza virus; for inhibition at 1 µM / inhibition at 10 µM / inhibition at 100 µM: MDCK2, 15 h, read-out: infectivity % inhibition
[5] = tested on: influenza-mediated syncytia formation, CV-1 cells
[6] = Experimental: Synthesis, purification, and characterization of selected compounds are summarized below. Stock solutions were prepared fresh daily. All solutions of the test compounds were prepared in dimethyl-sulfoxide (DMSO).
[7] = unidentified influenza virus, Erythrocyte, log conc -3 (M), read-out: hemolysis % ↓ OD
[8] = unidentified influenza virus, Erythrocyte, log conc -4 (M), read-out: hemolysis % ↓ OD
[9] = unidentified influenza virus, Erythrocyte, log conc -5 (M), read-out: hemolysis % ↓ OD
[10] = unidentified influenza virus, Erythrocyte, 0.25 h, Table 6, 10^-3 = 1 mM, low pH 15 minutes, read-out: IC50 hemolysis
[11] = unidentified influenza virus, Erythrocyte, Table 7, read-out: HEM, negative log of IC50 (converted)
[12] = MDCK2, read-out: IC50 infectivity
[13] = MDCK2, read-out: INF, negative log of IC50 (converted)
[14] = unidentified influenza virus, Erythrocyte, read-out: hemolysis % ↓ OD

hemagglutinin (BHA), fusion peptide exposure (Influenza A virus (A/X-31(H3N2)), UniProt P03438), sequence (P03438 whole entry, looked up, the tested form may be a part): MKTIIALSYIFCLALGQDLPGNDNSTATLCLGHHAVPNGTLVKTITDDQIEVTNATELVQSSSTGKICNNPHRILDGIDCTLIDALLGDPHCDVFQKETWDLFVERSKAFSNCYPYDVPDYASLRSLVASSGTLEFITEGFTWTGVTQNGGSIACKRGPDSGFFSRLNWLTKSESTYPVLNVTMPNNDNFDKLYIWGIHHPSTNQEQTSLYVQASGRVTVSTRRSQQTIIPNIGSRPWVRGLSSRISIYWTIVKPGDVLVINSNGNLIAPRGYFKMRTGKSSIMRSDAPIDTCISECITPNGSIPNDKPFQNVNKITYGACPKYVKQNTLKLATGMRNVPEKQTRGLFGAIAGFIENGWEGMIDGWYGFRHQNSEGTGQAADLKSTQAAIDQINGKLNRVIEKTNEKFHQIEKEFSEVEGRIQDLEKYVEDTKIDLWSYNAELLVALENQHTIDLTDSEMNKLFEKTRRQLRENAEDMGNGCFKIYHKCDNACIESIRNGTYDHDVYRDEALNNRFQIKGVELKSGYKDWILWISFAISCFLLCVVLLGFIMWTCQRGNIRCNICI

Molecule	inhibition of hemolytic activity [2]	Hb control % ↓ OD (hemoglobin; log conc -3 (M)) [%]	inhibition at 1000 µM [2, 7] [%]	inhibition at 100 µM [2, 8] [%]	Hb control % ↓ OD (hemoglobin; log conc -4 (M)) [%]	cytotoxicity at 15 h, 1 µM (in vitro) [%]	cytotoxicity at 15 h, 10 µM (in vitro) [%]	cytotoxicity at 15 h, 100 µM (in vitro) [%]	inhibition at 1 µM (C22 virus in MDCK2 cells [4]) [%]	inhibition at 10 µM (C22 virus in MDCK2 cells [4]) [%]	inhibition at 100 µM (C22 virus in MDCK2 cells [4]) [%]	IC50 [2, 11] [µM]	syncytia, Table 6 [5]	IC50 (C22 virus in MDCK2 cells [4]; [13]) [µM]	also measured
5,8-dihydro-5,8-methano-1,4-naphthalenediol [Compound 83]	inhibits HA-mediated hemolysis	16.5 ± 2.1	–	–	–	–	–	–	–	–	–	–	–	–	SPA activity [1]: significant activity; % inhibition, POST (Table 1) (low pH BHA; 1 mM, POST control): 2.1%; hemolysis % ↓ OD ([2]; log conc -3 (M), 1000 µM): 67.0 ± 15.1%; hemolysis % ↓ OD ([2]; log conc -4 (M), 100 µM): 17.9 ± 20.0%; hemolysis % ↓ OD ([2]; log conc -5 (M), 10 µM): 11.3 ± 10.3%; infectivity % inhibition (C22 virus in MDCK2 cells [3]; log conc -3 (M)): 51.1 ± 28.3%; infectivity % inhibition (C22 virus in MDCK2 cells [3]; log conc -4 (M)): 33.1 ± 20.2%; infectivity % inhibition (C22 virus in MDCK2 cells [3]; log conc -5 (M)): 8.7 ± 6.7%; infectivity % inhibition (C22 virus in MDCK2 cells [3]; log conc -6 (M)): 12.3 ± 2.5%
O=C(O)C1C=CCC2C(=O)C=CC(=O)C12 (centres unmarked) [Compound 91, 5,8-dioxo-1,4,4A,5,8,8A-hexahydro-1-naphthalene carboxylic acid]	apparently inhibited hemolytic activity	29.6 ± 2.5	91 ± 14.6	60.5 ± 0.7	26.8 ± 5.0	-0.06 ± 5.1	-2 ± 9.4	-4.3 ± 7	-1.3 ± 4	6.5 ± 7	70.9 ± 39.8	–	–	–	% inhibition, POST control (low pH BHA; log conc -3 (M)): 54.5%; inhibition at 100 µM ([2]; unidentified influenza virus, Erythrocyte, 0.1 mM, pH 5.0, FIG. 8, read-out: Maximum inhibition of hemolysis): 61%; IC50 ([2]; unidentified influenza virus, Erythrocyte, Table 7, preliminary results, read-out: HEM, negative log of IC50 (preliminary results) (converted)): 100 to 1000 µM; inhibition at 10 µM [2, 9]: 13.2%; inhibition at 1 µM ([2]; unidentified influenza virus, Erythrocyte, log conc -6 (M), read-out: hemolysis % ↓ OD): -5.1%; Hb control % ↓ OD (hemoglobin; log conc -5 (M)): 11%; Hb control % ↓ OD (hemoglobin; log conc -6 (M)): 3%; IC50 (C22 virus in MDCK2 cells [4]; MDCK2, read-out: INF, negative log of IC50 (preliminary results) (converted)): 10 to 100 µM
Cc1c(O)ccc(O)c1C [Compound 99, 2,3-dimethylhydroquinone]	did not	27.8	28.7	–	–	-4.2 ± 9	-10.1 ± 10	99.4 ± 0.4	26.2 ± 8.6	35.9 ± 5.2	114 ± 12	> 1000	toxic	> 10	IC50 [2, 10]: > 1000 µM; IC50 (C22 virus in MDCK2 cells [4]; [12]): > 10 µM
O=C1c2ccccc2C(=O)c2c(O)ccc(O)c21 [Compound 102, quinizarin]	–	–	–	–	–	–	–	–	–	–	–	–	–	–	inhibition in the SPA assay ([1]; 1 μM-1 mM): showed no inhibition; activity note in Table 7 ([1]; Table 7): inactive; solubility at 1 mM ([6]; 1 mM): only partially soluble at 1 mM
Oc1ccc(O)c2c1C1CCC2C1 [Compound 111, 3',6'-dihydroxybenzonorbornane]	–	64.9 ± 0.5	36.7 ± 0.6	-6.9 ± 9.3	40.4 ± 1.3	1 ± 5.8	-1.6 ± 0.8	41 ± 17	21.7 ± 4.9	57.4 ± 25.2	102 ± 10.6	100 to 1000	morph	10	activity rank among compounds tested [1]: most active; % inhibition, POST control (low pH BHA; log conc -3 (M)): 13.3%; % inhibition, POST control (low pH BHA; log conc -4 (M)): 9.5%; IC50 (C22 virus in MDCK2 cells [4]; [12]): 10 µM
O=c1[nH]c(=O)n(O)c2nc[nH]c12 [Compound 113, xanthine 3-N-oxide]	–	–	–	–	–	–	–	–	–	–	–	–	–	–	solubility in DMSO ([6]; DMSO): insoluble in DMSO
O=C1C=CC(=O)c2cc3ccccc3cc21 [Compound 114, 1,4-anthraquinone]	–	–	–	–	–	-4.3 ± 3.3	53.7 ± 2.1	102	0.2 ± 0.2	92.3 ± 12.7	–	–	toxic	–	infectivity in Table 6 (C22 virus in MDCK2 cells [3]; Table 6): toxic; INF, words (Table 7) (C22 virus in MDCK2 cells [3]; Table 7): toxic
Cc1cc(O)c(C)cc1O [Compound 116, 2,5-dimethylhydroquinone]	did not	44.0	17.3	7.7	31.6	3.6 ± 4.5	-9.4 ± 5	-23.6 ± 5	18.8 ± 1.7	42.8 ± 4.7	78.1 ± 10	> 1000	morph	10 to 100	SPA activity [1]: inactive in the SPA; IC50 [2, 10]: > 1000 µM; infectivity inhibition (C22 virus in MDCK2 cells [3]): inhibited infectivity
CC(C)(C)c1cc(O)ccc1O [Compound 117, tert-butylhydroquinone]	apparently inhibited hemolytic activity	17.8	116	31.6 ± 6.9	9.9 ± 2.8	-8.4 ± 7.6	-13.7 ± 2.8	-26.1 ± 3.3	7.5 ± 0.1	22.2 ± 13.2	53.7 ± 26.4	100	–	10 to 100	activity rank among compounds tested [1]: most active; % inhibition, POST control (low pH BHA; log conc -3 (M)): -3.4%; % inhibition, POST control (low pH BHA; log conc -4 (M)): 2.9%; % inhibition, POST control (low pH BHA; log conc -5 (M)): 9.1%; % inhibition, POST control (low pH BHA; log conc -6 (M)): 4.7%; IC50 [2, 10]: 100 µM; inhibition at 10 µM [2, 9]: 13.9%; Hb control % ↓ OD (hemoglobin; log conc -5 (M)): 7.9%; inhibition of syncytia formation ([5]; 1 μM): Significant inhibition was not observed; inhibition of syncytia formation ([5]; 10 μM): completely abolished the ability of the virus to induce syncytia
Cl.Nc1ccc(O)c2ccccc12 [Compound 121, 4-amino-1-naphthol hydrochloride]	–	–	–	–	–	–	–	100	–	–	–	–	–	–	IC50 ([2]; unidentified influenza virus, Erythrocyte, 0.25 h, read-out: IC50 hemolysis): ≥ 1000 µM; IC50 ([2]; unidentified influenza virus, Erythrocyte, read-out: HEM, negative log of IC50 (converted)): ≥ 1000 µM; inhibition at 10 µM [2, 14]: -4.6 ± 0.1%; inhibition at 100 µM [2, 14]: 31.5 ± 7.8%; inhibition at 1000 µM [2, 14]: 116%; Hb control % ↓ OD (hemoglobin): 68.0%; INF, words (Table 7) (C22 virus in MDCK2 cells [3]): toxic; infectivity in Table 6 (C22 virus in MDCK2 cells [3]): toxic
Oc1ccc2ccccc2c1O [Compound 124, 1,2-dihydroxynaphthalene]	–	–	–	–	–	–	–	80.5	–	–	–	–	–	–	infectivity in Table 6 (C22 virus in MDCK2 cells [3]; Table 6): toxic; INF, words (Table 7) (C22 virus in MDCK2 cells [3]; Table 7): toxic

Reference: patent US6080791A, “Method of treating a viral condition by inhibiting membrane fusion” (priority 1992, dated 2000)
